Reference: patent publication US8742068B2, “Treatment and prevention of inflammatory diseases and autoimmune diseases” (Universiteit Utrecht Holding B.V., priority 2007, dated 2014)

Test system: proteoglycan induced arthritis
Experiment: Proteoglycan induced arthritis (PGIA), intranasal pre-treatment
Format: in vivo, Balb/c mice
Details: Example 8: 30 μg intranasally on day −7, −5 and −3 before disease induction
From the text: The proteoglycan induced arthritis model (PGIA) is a murine model of rheumatoid arthritis and is described to be a T-cell dependent and antibody mediated model. In the model arthritis is induced by two times injection of human proteoglycan (hPG) in a synthetic adjuvant dimethyldioctadecylammonium (DDA), see Hanyecz A. et al., Achievement of a synergistic adjuvant effect on arthritis induction by activation of innate immunity and forcing the immune response toward the Th1 phenotype. Arthritis Rheum. 2004 50(5):1665-76.
Because arthritis is induced by immunization with a synthetic adjuvant, instead of complete Freund's adjuvant (CFA), the role of interfering immune responses, induced by microbial Hsp's present in CFA, can be excluded. Due to cross reactive responses, between the human and the mouse (self) PG, a chronic and relapsing arthritis develops. After disease development, arthritis severity is scored by clinical assessment of thickness, redness and deformation of the joints on a scale of 1-4 per paw.
Ten female Balb/c mice, retired breeders obtained from Charles River, were randomly divided in two groups. To evaluate the effect of intra nasal treatment with Mycobacterial HSP70 (SEQ ID NO: 55) on PGIA 30 μg Hsp70 in 10 μl PBS was administered on day −7, −5 and −3 before disease induction. PGIA was induced by two times i.p. injection with 400 μg hPG and 2 mg DDA in 200 μl PBS. Subsequently developed arthritis scores were assessed by clinical evaluation as described in Example 7.
Fifteen female Balb/c mice, retired breeders obtained from Charles River, were randomly divided in three groups (five mice per group). To evaluate the effect of intranasal treatment with Hsp70-derived peptides “B1” (SEQ ID NO: 1) and a mixture of C1 (SEQ ID NO: 3) and mC1a (SEQ ID NO: 4) (designated herein as “C1mix”) on PGIA 100 μg peptide in 10 μl PBS was administered on day −7, −5 and −3 before disease induction. Ovalbumin peptide 323-339 (pOva) was used as a control peptide. PGIA was induced by two times i.p. injection with 400 μg hPG and 2 mg DDA in 200 μl PBS. Subsequently developed arthritis scores were assessed by clinical evaluation.
Twelve female Balb/c mice, retired breeders obtained from Charles River, were randomly divided in two groups (six mice per group). To evaluate the effect of intra nasal treatment with Hsp70 derived mC1 a on PGIA 100 μg peptide in 10 μl PBS was administered on day −14, −11, −7 and −4 before disease induction. Ovalbumin peptide (pOva) was used as a control peptide. PGIA was induced by two times i.p. injection with 400 μg hPG and 2 mg DDA in 200 μl PBS. Subsequently developed arthritis scores were assessed by clinical evaluation.
Eighteen female Balb/c mice, retired breeders obtained from Charles River, were randomly divided in three groups (six mice per group). To evaluate the effect of intranasal (i.n.) treatment with Hsp70 derived peptides C1 and its mouse homologue mC1a on PGIA 100 μg peptide in 10 μl PBS was administered on day −7, −5 and −3 before disease induction (see FIG. 28). Ovalbumin peptide (pOva) was used as a control peptide. PGIA was induced by two times i.p. injection with 300 μg hPG and 2 mg DDA in 200 μl PBS. Subsequently developed arthritis scores were assessed by clinical evaluation. • Group A: (pOva): Treated with 100 μg pOva in 10 μl PBS intranasally • Group B (C1): Treated with 100 μg C1 in 10 μl PBS intranasally • Group C (mC1a): Treated with 100 μg mC1a in 10 μl PBS intranasally

HSP70: full length Mycobacterial HSP70 protein (SEQ ID NO: 55)
arthritis development (arthritis score): can suppress arthritis development
